Test results taken from ChEMBL document CHEMBL4007490, “New hydrazine and hydrazide quinoxaline 1,4-di-N-oxide derivatives: In silico ADMET, antiplasmodial and antileishmanial activity” (Bioorg Med Chem Lett, 2017).

Key:
[1] = Selectivity index, ratio of CC50 for human HepG2A16 cells to IC50 for chloroquine/cycloguanil-resistant Plasmodium falciparum FCR3; assay type: toxicity; conditions: read-out: Ratio CC50/IC50
[2] = Cytotoxicity against human HepG2A16 cells after 48 hrs by MTT assay; assay type: cell-based
[3] = Selectivity index, ratio of CC50 for human HepG2A16 cells to IC50 for axenic amastigote form of Leishmania infantum MHOM/MA/67/ITMAP-263; assay type: toxicity; conditions: read-out: Ratio CC50/IC50
[4] = test system: Plasmodium falciparum; test: Antiplasmodial activity against chloroquine/cycloguanil-resistant Plasmodium falciparum FCR3 by [3H]-hypoxanthine incorporation assay; assay type: functional; conditions: FCR-3/Gambia
[5] = test system: Leishmania infantum; test: Antileishmanial activity against axenic amastigote form of Leishmania infantum MHOM/MA/67/ITMAP-263 assessed as parasite growth inhibition after 72 hrs by MTT assay; assay type: functional; conditions: MHOM/MA/67/ITMAP-263, 72 h
[6] = test system: Plasmodium falciparum; test: Antiplasmodial activity against chloroquine-sensitive/sulfadoxine-resistant Plasmodium falciparum 3D7 by [3H]-hypoxanthine incorporation assay; assay type: functional

Compound	selectivity ratio [1]	CC50 at 48 h [2] [µM]	selectivity ratio [3]	IC50 [4] [µM]	IC50 [5] [µM]	IC50 [6] [µM]
CC(=O)N/N=C/c1c(C)[n+]([O-])c2ccccc2[n+]1[O-]	< 0.87	87.2	< 0.87	> 100	> 100	> 100
COc1ccc(C(=O)N/N=C/c2c(C)[n+]([O-])c3ccccc3[n+]2[O-])cc1	2.22	66.6	< 0.66	30	> 100	27.8
COc1ccc2c(c1)[n+]([O-])c(/C=N/Nc1ccnc3cc(Cl)ccc13)c(C)[n+]2[O-]	> 95.3	> 244	–	2.56	> 100	1.4
Cc1c(C)[n+]([O-])c2ccccc2[n+]1[O-]	< 3.21	322	< 3.21	> 100	> 100	> 100
Cc1c(/C=N/NC(=O)c2ccncc2)[n+]([O-])c2ccccc2[n+]1[O-]	< 0.9	90.9	< 0.9	> 100	> 100	> 100
Cc1c(/C=N/Nc2ccccc2)[n+]([O-])c2ccccc2[n+]1[O-]	< 0.35	35.4	< 0.35	> 100	> 100	> 100
Cc1c(/C=N/NC(=O)c2ccc(Cl)cc2)[n+]([O-])c2ccccc2[n+]1[O-]	0.81	28.3	0.54	34.8	52.3	54.9
Cc1c(/C=N/Nc2ccnc3cc(Cl)ccc23)[n+]([O-])c2cc(Cl)ccc2[n+]1[O-]	> 86.1	> 241	–	2.8	> 100	0.24
Cc1ccc(S(=O)(=O)N/N=C/c2c(C)[n+]([O-])c3ccccc3[n+]2[O-])cc1	< 2.41	241	4.51	> 100	53.4	85.3
Cc1c(/C=N/Nc2c(Cl)cc(Cl)cc2Cl)[n+]([O-])c2ccccc2[n+]1[O-]	< 1.24	124	< 1.24	> 100	> 100	> 100
Cc1c(C(F)(F)F)[n+]([O-])c2ccccc2[n+]1[O-]	0.42	1.8	0.05	4.2	30.5	7.9
Cc1c(/C=N/NC(=O)c2ccccc2)[n+]([O-])c2ccccc2[n+]1[O-]	1.11	40.7	0.68	36.5	59.1	55.7
Cc1c(/C=N/Nc2ccc(Cl)c(Cl)c2)[n+]([O-])c2ccccc2[n+]1[O-]	6.32	551	< 5.5	87.1	> 100	76.7
Cc1c(C)[n+]([O-])c2cc(Cl)ccc2[n+]1[O-]	< 2.28	228	< 2.28	> 100	> 100	> 100
Cc1c(/C=N/Nc2c(Cl)cc(Cl)cc2Cl)[n+]([O-])c2cc(Cl)ccc2[n+]1[O-]	0.2	12.2	< 0.12	61.1	> 100	> 100
COc1ccc2c(c1)[n+]([O-])c(/C=N/Nc1c(Cl)cc(Cl)cc1Cl)c(C)[n+]2[O-]	< 2.09	209	< 2.08	> 100	> 100	> 100
Cc1c(/C=N/Nc2cccc(Cl)c2)[n+]([O-])c2ccccc2[n+]1[O-]	< 0.47	47.3	< 0.47	> 100	> 100	> 100
C[C@@H]1[C@H](O)[C@@H](C)/C=C/C=C/C=C/C=C/C=C/C=C/C=C/[C@H](O[C@@H]2O[C@H](C)[C@@H](O)[C@H](N)[C@@H]2O)C[C@@H]2O[C@](O)(C[C@@H](O)C[C@@H](O)[C@H](O)CC[C@@H](O)C[C@@H](O)CC(=O)O[C@H]1C)C[C@H](O)[C@H]2C(=O)O [AMPHOTERICIN B]	–	–	–	–	0.05	–
COc1ccc2c(c1)[n+]([O-])c(C)c(C)[n+]2[O-]	< 7.44	744	< 7.44	> 100	> 100	> 100
Cc1c(/C=N/Nc2ccc(C(=O)O)cc2)[n+]([O-])c2ccccc2[n+]1[O-]	< 3.72	373	< 3.72	> 100	> 100	> 100
